Measurements as given in ChEMBL document CHEMBL4371082.
The source made the active and inactive calls.

What was measured:
[1] = Antioxidant activity assessed as DPPH free radical scavenging activity at 20 uM; format: functional
[2] = Antioxidant activity assessed as ABTS radical scavenging activity at 20 uM measured at 30 sec interval over 60 mins; format: functional
[3] = test system: Saccharomyces cerevisiae; assay: Protection against 3-copies of HA-tagged human alpha-syn gene induced oxidative stress in yeast BC300 assessed as reduction in reactive oxygen species level in SG solid agar medium by dihydroethidium dye based fluorescence assay; format: functional, organism-based
[4] = test system: Saccharomyces cerevisiae; assay: Protection against 3-copies of HA-tagged human alpha-syn gene induced mitochondrial dysfunction in yeast BC300 assessed as prevention of mitochondrial membrane potential loss in SG solid agar medium by JC-10 dye based fluorescence assay; format: functional, organism-based
[5] = test system: Saccharomyces cerevisiae; assay: Protection against copy of c-myc-tagged human bax gene induced oxidative stress in yeast BC300 assessed as reactive oxygen species level in SG liquid medium by dihydroethidium dye based fluorescence assay; format: functional, organism-based
[6] = test system: Saccharomyces cerevisiae; assay: Protection against copy of c-myc-tagged human bax gene induced mitochondrial dysfunction in yeast BC300 assessed as prevention of mitochondrial membrane potential loss in SG liquid medium by JC-10 dye based fluorescence assay; format: functional, organism-based

Measured: Activity

O=C1O[C@H]([C@@H](O)CO)C(O)=C1O
active: [1] | [2]

COc1ccc([C@@H](O)CNC(=O)/C=C/c2ccccc2)cc1
active: all assays above
